# What was measured:
# Format in all cases: in vivo
# sugar cane [1] = assay: Phytotoxicity on sugar cane, spray from upper side of pot, sugar cane at 4 to 5 leaves (Example 2); settings: 125 g (active ingredient)/ha, one week after treatment, scale 0 to 100
# Method: (§1) A sugar cane, a foliage of which had grown to about 4 to 5 leaves, was selected, and the length of the stem cutting was adjusted to be 8 cm, 15 cm or 25 cm. The 8 cm or 15 cm stem cutting had one node, and the 25 cm stem cutting had two nodes. A soil was packed into a 32 cm×25 cm×11 cm plastic pot, and seeds of Amaranthus retroflexus were seeded thereon. […] On the date when the stem cutting was planted, and after planting of the stem cutting, a water-diluted liquid of a flumioxazin water dispersible granule (water dispersible granule containing 51% flumioxazin, trade name: Valor SX, manufactured by Valent USA Corporation) (250 ppm) was uniformly sprayed with a sprayer from an upper side of the pot at an amount described in Table 2. Thereafter, the pot for a test was placed in a greenhouse. One week after treatment with flumioxazin, phytotoxicity on sugar cane was determined and, four weeks after treatment with flumioxazin, the herbicidal activity against Amaranthus retroflexus was determined.
# sugar cane [2] = assay: Phytotoxicity on sugar cane, spray from upper side of pot, sugar cane at 4 to 5 leaves (Example 3); settings: 70 g (active ingredient)/ha, one week after treatment, scale 0 to 100
# Method: as §1, with “8” for “8 cm, 15”, “8” for “8 cm or 15”, “saflufenacil (140” for “a flumioxazin water dispersible granule (water dispersible granule containing 51% flumioxazin, trade name: Valor SX, manufactured by Valent USA Corporation) (250”, “3. The water-diluted liquid of saflufenacil was prepared by dissolving a predetermined amount of saflufenacil in acetone containing 2% (w/v) Tween 20, and diluting this solution with water so that the acetone concentration became 10% by volume.” for “2.”, “saflufenacil,” for “flumioxazin,”
# Amaranthus retroflexus = assay: Herbicidal activity, spray from upper side of pot, sugar cane at 4 to 5 leaves (Example 3); settings: 70 g (active ingredient)/ha, four weeks after treatment, scale 0 to 100
# Method: as §1, with “8” for “8 cm, 15”, “8” for “8 cm or 15”, “saflufenacil (140” for “a flumioxazin water dispersible granule (water dispersible granule containing 51% flumioxazin, trade name: Valor SX, manufactured by Valent USA Corporation) (250”, “3. The water-diluted liquid of saflufenacil was prepared by dissolving a predetermined amount of saflufenacil in acetone containing 2% (w/v) Tween 20, and diluting this solution with water so that the acetone concentration became 10% by volume.” for “2.”, “saflufenacil,” for “flumioxazin,”
SMILES,Phytotoxicity on sugar cane (sugar cane [1]; stem cutting 8 cm (one node)),Phytotoxicity on sugar cane (sugar cane [1]; stem cutting 15 cm (one node)),Phytotoxicity on sugar cane (sugar cane [1]; stem cutting 25 cm (two nodes)),Phytotoxicity on sugar cane (sugar cane [2]; stem cutting 8 cm (one node)),Phytotoxicity on sugar cane (sugar cane [2]; stem cutting 25 cm (two nodes)),Herbicidal activity (Amaranthus retroflexus; stem cutting 8 cm),Herbicidal activity (Amaranthus retroflexus; stem cutting 25 cm)
"C#CCN1C(=O)COc2cc(F)c(N3C(=O)C4=C(CCCC4)C3=O)cc21 [Flumioxazin, flumioxazin]",10,10,30,,,,
"CC(C)N(C)S(=O)(=O)NC(=O)c1cc(-n2c(=O)cc(C(F)(F)F)n(C)c2=O)c(F)cc1Cl [Saflufenacil, saflufenacil]",,,,0,15,100,100

# From US20140329682A1, “METHOD OF CONTROLLING WEED IN A SUGAR CANE FIELD” (SUMITOMO CHEMICAL COMPANY, LIMITED, priority 2011, published 2014)
